Assay results: paper PMC5706701, “Development of a homogenous high-throughput assay for inositol hexakisphosphate kinase 1 activity” (PLoS ONE, 2017)
Read-outs that look alike come from different tables or passages of the source.

Tests used:
Human IP6K1 [1] = target: T1, Human IP6K1 (Homo sapiens, UniProt Q92551); assay: IP6K1 inhibition dose-response assay (ADP-Glo Max); assay type: biochemical
T1 construct: GST (N, cleaved yes); made in house; host or cells: C43 E. coli, pGEX-6P-2

human IP6K2 = target: T2, human IP6K2 (Homo sapiens, UniProt Q9UHH9); assay: IP6K2 inhibition dose-response assay (ADP-Glo Max); assay type: biochemical
T2 construct: GST (N, cleaved yes); made in house; host or cells: C43 E. coli, pGEX-6P-2
T2 sequence (Q9UHH9 1-426): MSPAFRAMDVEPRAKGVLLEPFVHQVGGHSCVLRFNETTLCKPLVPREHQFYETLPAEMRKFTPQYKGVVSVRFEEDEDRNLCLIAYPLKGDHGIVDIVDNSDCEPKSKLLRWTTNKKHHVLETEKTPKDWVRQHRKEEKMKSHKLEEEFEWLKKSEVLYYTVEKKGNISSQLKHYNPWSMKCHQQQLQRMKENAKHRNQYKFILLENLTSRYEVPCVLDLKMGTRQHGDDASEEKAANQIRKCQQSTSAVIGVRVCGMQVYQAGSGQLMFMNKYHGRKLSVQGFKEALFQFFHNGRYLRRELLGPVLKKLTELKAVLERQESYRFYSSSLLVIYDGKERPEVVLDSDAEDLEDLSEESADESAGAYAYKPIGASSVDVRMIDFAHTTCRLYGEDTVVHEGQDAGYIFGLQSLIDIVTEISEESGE
Protocol: (§1) Human IP6K1 (NCBI accession# Q92551), human IP6K2 (NCBI accession# Q9UHH9), and human IP6K3 (NCBI accession# Q96PC2) were purified from C43 E. coli transformed with pGEX-6P-2 expression vector containing GST tagged IP6K1, IP6K2, or IP6K3. The bacteria were grown overnight in a starter culture containing LB (Lennox) and 100μg/mL ampicillin (Sigma). The starter culture was diluted 1:100 into LB (Lennox) and allowed to grow to an optical density of 0.8 at 37°C when protein expression was induced with 1mM IPTG (Calbiochem) for 5hrs. The cells were pelleted with 3000RCF at 4°C and frozen at -80°C. Later, the bacteria was re-suspended in lysis buffer (20mM Tris, 200mM NaCl, 5mM DTT, 1% Triton-X, 0.5% IPEGAL, 1mg/mL lysozyme, and 1 protease inhibitor tablet (Sigma) per 100mL buffer, pH 7.4) and rotated on an end over end shaker for 30 min at 4°C followed by sonication. […]
(§2) For the dose response assays, 7–10 serial 3-fold compound dilutions were prepared in DMSO and then each compound was diluted with assay buffer (50mM Tris, 10mM MgCl2, 2.5mM DTT, 0.02% Triton X-100, pH 6.9) to reach the desired inhibitor concentrations in 25% DMSO. […] Luminescence generated was read on a Tecan Infinite M100 Pro plate reader. Samples were run in quadruplicate and the data was analyzed using a […] variable slope inhibition parameter on GraphPad Prism 7. […]

human IP6K3 = target: T3, human IP6K3 (Homo sapiens, UniProt Q96PC2); assay: IP6K3 inhibition dose-response assay (ADP-Glo Max); assay type: biochemical
T3 construct: GST (N, cleaved yes); made in house; host or cells: C43 E. coli, pGEX-6P-2
T3 sequence (Q96PC2 1-410): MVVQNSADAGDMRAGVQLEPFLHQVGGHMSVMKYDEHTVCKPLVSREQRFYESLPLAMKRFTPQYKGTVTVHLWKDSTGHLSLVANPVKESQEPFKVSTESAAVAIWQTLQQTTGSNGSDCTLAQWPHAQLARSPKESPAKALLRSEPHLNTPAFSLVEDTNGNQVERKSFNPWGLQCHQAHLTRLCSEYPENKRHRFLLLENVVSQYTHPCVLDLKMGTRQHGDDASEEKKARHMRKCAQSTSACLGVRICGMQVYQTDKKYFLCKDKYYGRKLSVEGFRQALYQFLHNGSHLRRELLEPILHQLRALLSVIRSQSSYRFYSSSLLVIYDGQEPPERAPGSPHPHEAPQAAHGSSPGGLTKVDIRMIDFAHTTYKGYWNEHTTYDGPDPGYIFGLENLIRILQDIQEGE
Protocol: as §1, §2

Human IP6K1 [2] = target: T1, Human IP6K1; assay: IP6K1 high-throughput screen of the Sigma LOPAC (ADP-Glo Max, single point); assay type: biochemical
[3] = system: enzymes involved in the detection steps of the kit; assay: Counter-screen against the detection steps of the ADP-Glo Max kit (no enzyme, no IP6); assay type: biochemical; details: 10μM compound, 25μM ADP and 975μM ATP
Protocol: The Sigma LOPAC was obtained as 10mM DMSO stock solutions from the Johns Hopkins ChemCore facility. Each compound was first diluted to 50μM and 25% DMSO in assay buffer. The inhibition assay was performed as described above with 1μL of compound and 4μL of kinase master mix so that the final compound concentration was 10μM in 5% DMSO. […] Hits were determined based by the Z score, which is calculated as Z = (Xi-Xavg)/Sx, where Xi is the raw measurement on the i^th compound, Xavg and Sx are the mean and the standard deviation, respectively, of all measurements within the plate. Hits identified from the screen were repeated in the assay in quadruplicate for confirmation. These confirmed hits were then tested to determine if they inhibited the enzymes involved in the detection steps of the kit. Possible interference of the compounds was assessed by measuring the degree to which they inhibited the signal produced by a 25μM ADP in the presence of 975μM ATP. This experiment was run as described above for the inhibition assays in the absence of enzyme and IP6.

Human IP6K1 [4] = target: T1, Human IP6K1; assay: Inositol polyphosphate separation by PAGE (5PP-IP5 production by IP6K1); assay type: biochemical; details: 10μM inhibitor, 1mM ATP, 250μM IP6, 60nM IP6K1, 2 hours, 37°C
Human IP6K1 [5] = target: T1, Human IP6K1; assay: IP6K1 kinetic assay (ADP-Glo Max, Michaelis-Menten); assay type: biochemical; details: 400μM IP6, ATP 31.25μM to 2mM, 15ng IP6K1, 15 minutes
Protocol: IP6K1 activity was measured using the ADP-Glo Max kit (Promega). […] Reactions were quenched with 5μL of Promega ADP-Glo reagent to deplete the remaining ATP at the corresponding time points and incubated for 1hr at room temperature in the dark. […] Luminescence was detected with a Tecan Infinite […] plate reader. The amount of ADP produced by IP6K1 was determined by correlating the observed luminescence to a luminescence signal standard curve generated from various concentrations of ADP. A new standard curve was generated for each concentration of ATP tested such that the total amount of nucleotides (ATP+ADP) at every point on the curve was equal to the concentration of ATP used in the experiment. Standard curves typically began with 100μM or 50μM ADP and were serially 2-fold diluted 8 times. […] Nonlinear regressions and curve fitting to the Michaelis-Menten equation were performed in GraphPad Prism 7. […] The ADP production at […] was measured. The initial reaction velocity (V0) was calculated and plotted with each ATP condition. GraphPad Prism 7 was used to run the non-linear regression and fit the data to the Michaelis-Menten equation. […] The Michaelis-Menten constants when IP6 is the varied substrate were unable to be determined.

IP6K1 = system: IP6K1; set-up: method as in PMID 8633060; details: 3H-PP-IP5 production with 3H-IP6 as substrate; read-out: Km of ATP for IP6K1; cited from earlier work
[6] = LOPAC single-point screen, ADP-Glo Max luminescence raw signal per well
[7] = LOPAC single-point screen, Z-score relative to plate average and StDev
[8] = LOPAC single-point screen, ADP-Glo Max raw signal per well
[9] = LOPAC single-point screen, Z-score against plate average and StDev
[10] = LOPAC single-point screen, Z-score from raw signal with plate average and StDev
[11] = Sigma LOPAC single-point screen, ADP-Glo Max raw signal per well
[12] = Sigma LOPAC single-point screen, Z-score from plate average and StDev
[13] = LOPAC single-point screen, Z-score from plate average and StDev

T1 sequence (Q92551 whole entry): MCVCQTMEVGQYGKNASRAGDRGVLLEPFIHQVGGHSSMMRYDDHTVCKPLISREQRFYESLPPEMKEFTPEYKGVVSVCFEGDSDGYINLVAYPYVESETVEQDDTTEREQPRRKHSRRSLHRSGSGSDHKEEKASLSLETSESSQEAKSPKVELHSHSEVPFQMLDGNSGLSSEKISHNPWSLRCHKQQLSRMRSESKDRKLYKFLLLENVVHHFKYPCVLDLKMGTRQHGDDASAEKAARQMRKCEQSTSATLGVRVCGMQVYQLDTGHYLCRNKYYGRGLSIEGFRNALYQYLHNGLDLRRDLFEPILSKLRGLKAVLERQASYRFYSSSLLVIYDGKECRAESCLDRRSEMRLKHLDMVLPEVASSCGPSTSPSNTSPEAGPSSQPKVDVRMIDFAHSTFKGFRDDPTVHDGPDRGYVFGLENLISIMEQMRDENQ

Compound: NC(Cc1cc(O)c(O)cc1O)C(=O)O (racemic) [6-Hydroxy-DL-Dopa]
- IC50 (Human IP6K1 [1]): 1.84 ± 1.03 µM
- IC50 (human IP6K2): 1.66 ± 1.06 µM
- IC50 (human IP6K3): 11.1 ± 1.13 µM
- Raw Signal (Human IP6K1 [2]; [6]): 10170
- Z-score (Human IP6K1 [2]; [7]): -9.138
- Signal loss in counter-screen of detection steps [3]: neither TNP nor 6-Hydroxy-DL-Dopa showed significant signal loss
- Inhibition of 5PP-IP5 production by IP6K1 (PAGE, Toluidine Blue) (Human IP6K1 [4]): inhibited below the limit of detection

Compound: Nc1ncnc2c1ncn2[C@@H]1O[C@H](COP(=O)(O)OP(=O)(O)OP(=O)(O)O)[C@@H](O)[C@H]1O [ATP]
- Km (Human IP6K1 [5]): 382 ± 44 µM
- Vmax for ATP (Human IP6K1 [5]): 1116 ± 41 nmol/min/mg
- Km (IP6K1): 1000 µM

Compound: O=c1c(O)c(-c2cc(O)c(O)c(O)c2)oc2cc(O)cc(O)c12 [Myricetin]
- IC50 (human IP6K2; 1mM ATP, 100μM IP6, 7.5nM IP6K2, 30 minutes, 37°C, read-out: IC50 IP6K2): 23.4 ± 1.1 µM
- IC50 (human IP6K3; 1mM ATP, 100μM IP6, 120nM IP6K3, 120 minutes, 37°C, read-out: IC50 IP6K3): 4.93 ± 1.14 µM
- Raw Signal (Human IP6K1 [2]; [6]): 8540
- Inhibition of enzyme activity in initial LOPAC screen (Human IP6K1 [2]; single point 100μM compound, 62.5μM ATP): 100%
- Signal loss in counter-screen of detection steps [3]: significantly inhibit the secondary reagents

Compound: O=C1C=CC(=O)C=C1 [p-Benzoquinone]
- Raw Signal (Human IP6K1 [2]; [6]): 51681
- Z-score (Human IP6K1 [2]; [7]): -1.098

Compound: N[C@@H](Cc1ccc(F)cc1)C(=O)O [p-Fluoro-L-phenylalanine]
- Raw Signal (Human IP6K1 [2]; [8]): 55466
- Z-score (Human IP6K1 [2]; [9]): 0.06072

Compound: Cl.Clc1cc(I)cc(Cl)c1NC1=NCCN1 [p-Iodoclonidine hydrochloride]
- Raw Signal (Human IP6K1 [2]; [8]): 52843
- Z-score (Human IP6K1 [2]; [10]): -0.2605

Compound: COc1ccccc1N1CCN(CCN(C(=O)c2ccc(F)cc2)c2ccccn2)CC1.Cl.Cl [p-MPPF dihydrochloride]
- Raw Signal (Human IP6K1 [2]; [8]): 52235
- Z-score (Human IP6K1 [2]; [10]): -0.3627

Compound: COc1ccccc1N1CCN(CCN(C(=O)c2ccc(I)cc2)c2ccccn2)CC1.Cl [p-MPPI hydrochloride]
- Raw Signal (Human IP6K1 [2]; [11]): 60360
- Z-score (Human IP6K1 [2]; [12]): 1.003

Compound: C[C@]12CC[C@H](O)CC1=CC[C@@H]1[C@@H]2CC[C@]2(C)C(=O)CC[C@@H]12 [trans-Dehydroandrosterone]
- Raw Signal (Human IP6K1 [2]; [8]): 53982
- Z-score (Human IP6K1 [2]; [10]): -0.2407

Compound: (+)-Catechin Hydrate
- Raw Signal (Human IP6K1 [2]; [8]): 56524
- Z-score (Human IP6K1 [2]; [10]): -0.2447

Compound: (+)-Cyclazocine
- Raw Signal (Human IP6K1 [2]; [8]): 53235
- Z-score (Human IP6K1 [2]; [10]): -0.3924

Compound: (-)-3-Methoxynaltrexone hydrochloride
- Raw Signal (Human IP6K1 [2]; [8]): 54969
- Z-score (Human IP6K1 [2]; [9]): 0.0967

Compound: Adenosine 3 ,5 -cyclic monophosphate
- Raw Signal (Human IP6K1 [2]): 66195
- Z-score (Human IP6K1 [2]): 1.459

Compound: Foliosidine
- Raw Signal (Human IP6K1 [2]; [8]): 53530
- Z-score (Human IP6K1 [2]; [10]): -0.3325

Compound: JL-18
- Raw Signal (Human IP6K1 [2]; [6]): 64215
- Z-score (Human IP6K1 [2]; [13]): 1.65

Compound: L-Methionine sulfoximine
- Raw Signal (Human IP6K1 [2]): 58334
- Z-score (Human IP6K1 [2]): 0.6621

Compound: LY-310,762 hydrochloride
- Raw Signal (Human IP6K1 [2]; [8]): 55045
- Z-score (Human IP6K1 [2]; [9]): 0.1095

Compound: LY-367,265
- Raw Signal (Human IP6K1 [2]; [6]): 62501
- Z-score (Human IP6K1 [2]; [13]): 1.362

Compound: MDL 26,630 trihydrochloride
- Raw Signal (Human IP6K1 [2]; [8]): 53612
- Z-score (Human IP6K1 [2]; [10]): -0.1313

Compound: NS 521 oxalate
- Raw Signal (Human IP6K1 [2]; [8]): 56111
- Z-score (Human IP6K1 [2]; [9]): 0.2886

Compound: Oligomycin A
- Raw Signal (Human IP6K1 [2]; [8]): 55071
- Z-score (Human IP6K1 [2]; [9]): 0.1138

Compound: Picrotoxin
- Z-score (Human IP6K1 [2]; [7]): -0.5599

Compound: R(-)-Me5
- Raw Signal (Human IP6K1 [2]; [8]): 53002
- Z-score (Human IP6K1 [2]; [10]): -0.2338

Compound: R(-)-SCH-12679 maleate
- Raw Signal (Human IP6K1 [2]; [6]): 53479
- Z-score (Human IP6K1 [2]; [7]): -0.4944

Compound: Ro 20-1724
- Raw Signal (Human IP6K1 [2]; [6]): 54602
- Z-score (Human IP6K1 [2]; [7]): -0.5832

Compound: S(-)-DS 121 hydrochloride
- Raw Signal (Human IP6K1 [2]; [8]): 56472
- Z-score (Human IP6K1 [2]; [9]): 0.265

Compound: S(-)-UH-301 hydrochloride
- Raw Signal (Human IP6K1 [2]; [8]): 55198
- Z-score (Human IP6K1 [2]; [10]): -0.1604

Compound: S-Nitroso-N-acetylpenicillamine
- Raw Signal (Human IP6K1 [2]; [8]): 52205
- Z-score (Human IP6K1 [2]; [10]): -0.3677

Compound: SKF 83565 hydrobromide
- Raw Signal (Human IP6K1 [2]; [11]): 61448
- Z-score (Human IP6K1 [2]; [12]): 1.054
